Test results taken from US20050042316A1, “Attractants for moths” (priority 2001, published 2005).

Key:
H. armigera moths = assay: two-choice olfactometer, moths entering the test chamber; type: in vivo, Helicoverpa armigera; conditions: for attractiveness in the olfactometer: blend complexity studies, FIG. 8; for optimum concentration in the olfactometer: formulated in Sirene base, FIG. 6
Text: The design of our olfactometer (FIG. 1) has been described by Gregg et al. (1998) and is similar to that of Beerwinkle et al. (1996). The olfactometer is a two-choice system in which moths choose between two airstreams. One carries either a bouquet (about 200 g) of freshly cut plant stems with their bases in a flask of water, or plant volatiles formulated and presented as described below (the test chamber). The other carries clean air (the control chamber). Each run normally uses 50 moths, and runs are normally replicated three times for each sex and each attractant. Thus, olfactometer data points are usually each based on the responses of 150 moths. Moths are laboratory-reared, unmated and aged 1-4 (usually 2-3) days. We use two criteria for attractiveness, the test % (percentage of the total 150 moths which enter the test chamber), and success rate (number entering the test chamber relative to those entering the control chamber). The former is our primary criterion, and is the one presented here. Data are analysed using Zar's procedure for multiple comparison of proportions. With N=150, the minimum significant difference between two percentages using-this procedure is about 8%.
For testing single chemicals in the olfactometer early in the project, we dissolve the synthetic chemical in canola oil at a concentration of 10%. 200 μl of this is absorbed into a cotton dental wick which is placed in the test airstream of the olfactometer. These lures are changed every 2 h during olfactometer runs. Later tests of single chemicals to determine the effects of varying concentration are done using Sirene formulations, as discussed below.
For testing chemical blends in the olfactometer and in field trapping experiments, we are formulating in Sirene, a mixture of anti-oxidants and UV protectants which was developed by Novartis for attract-and-kill of several moth species using pheromones, and for which IPM Technologies Ltd have worldwide marketing and development rights. Chemicals are mixed into Sirene in the barrel of a syringe using a slow (4 rpm) broad-bladed propeller, which stirs the highly viscous material for 3 h. Formulations are then stored at 40 C in the sealed syringe for periods of up to 2 weeks. Sirene formulations are tested in the olfactometer by placing about 100 mg on a horizontal square (1×1 cm) of plastic (Corflute®), which is then placed on a pin in the test airstream of the olfactometer. For field testing, the plastic square carrying the formulation is held horizontally under the lid of the AgriSense trap, in the same position that a pheromone lure would be, using a screw.

moths = assay: laboratory feeding studies with ingestible formulations; type: in vivo; conditions: 1% toxicant in ingestible formulations
Description: To determine whether moths will feed on the ingestible formulations, and whether they die as a result, we place a single moth in a 1 litre plastic container which has 50 μl of the formulation as a single droplet in a beer bottle cap, on the bottom of the container. In some experiments laboratory-reared moths are used in a constant 25° C. reverse-cycle system. In others natural cycle laboratory moths are used in containers placed outdoors. Moths are observed at regular intervals and dead ones removed for dissection. At the end of the scotophase all surviving moths are removed and after a further hour are dissected.
In these studies small droplets (50-100 μl) were placed in a 1 litre container with the moths, so they spent the night in close proximity (within 10 cm) of the droplet.

Lab reared female moths = assay: field wind tunnel trials; type: in vivo; conditions: trial 8, Yanco, 0.5% methomyl
Description: These are used to observe behavioural responses of moths around lures, and to record kill rates of different blends and formulations, in semi-natural conditions. Clear polythene is stretched around a series of steel hoops 1.2 m in diameter which are suspended from a horizontal pipe Flywire is placed over each end. The wind tunnels are hung just above ground level and oriented parallel to the prevailing wind. Lures (3 bottle tops containing 100-200 μl of the attractant under test) are placed on a plastic dinner plate in the upwind end and 20-50 moths are released into the downwind end about 1 h before sunset. Lab reared female moths produced under natural photoperiod are used. Behavioural responses are observed using night vision glasses. In the morning both live and dead moths are collected and dissected to determine from the presence of green dye whether they have fed on the lure.

Helicoverpa spp. = assay: field trapping trials with AgriSense traps; type: in vivo; conditions: for Peak catch % of phero / Whole experiment Lure N: Downs
Text: For field tests of the attractiveness of different blends we use AgriSense pheromone traps of the canister type (Gregg and Wilson 1991). Traps are usually cleared three times weekly, and the catch sorted. Moths are sexed and the females dissected to determine mated status. We normally test 5 formulations at a time, replicated 4 times, so there are 4 rows of 5 traps, each row containing one replicate of each formulation. Traps are spaced 50 m apart and are rotated, within a row, between catch intervals. Experiments are analysed as Latin squares. Field trials at Cecil Plains were conducted in soybeans, cotton, chickpea, wheat, fallow land and sunflower, and at Kununurra and China, in cotton.
These trials have been done at different times, and in different areas, different crops and different weather conditions. In some cases the conditions have been less than optimal. Examples include the Twynam 1, 2 and 3 trials in the Ord River, where night temperatures were often too low for moth activity, and the last two Wamara trials in 2000 where moth numbers in the district were extremely low. Because of these differences it is not possible to directly compare the numbers of moths caught between trials. We have therefore expressed the results as a percentage of the pheromone traps run in the same experiments. This percentage has been calculated on the catch interval with the highest volatile catches. We do this because the residual life of some volatiles is short and some formulations probably lose attractiveness during the course of the trials, whereas the pheromone release rate remains relatively constant. PBE1 was also included in almost all of these trials, as a standard plant volatile blend. The unweighted average catch of PBE1, across all trials, was 5.8% of the pheromone catch. Though PBE1 and some other volatile formulations occasionally caught up to 15-33% of the corresponding pheromone catch, when this occurred the overall numbers of moths were low, so the results are statistically unreliable.

[1] = single chemicals in Sirene formulations
[2] = single chemicals, 10% in canola oil, females, FIG. 5
[3] = Wamara3 Soybean, 20 Feb-12 Mar 99

In the case of `OCCc1ccccc1` [2-phenylethanol], the test % (H. armigera moths; 2% concentration in Sirene) is reported as 26.4%, the “attractiveness in the olfactometer” value (H. armigera moths) is reported as “significantly attractive” and the test % (H. armigera moths; in canola oil) is reported as 29%. The “attraction in the olfactometer (statistical significance)” value (shortened to “attraction … (statistical significance)”) (H. armigera moths; [1]) was “confirmed” and the “attraction … (statistical significance)” value (H. armigera moths; [2]) was “statistically significant levels of attraction”.
For `CC1=CCC2C(C1)C2(C)C` (stereo not shown) [Blend 3-carene, 3-carene], the “attraction … (statistical significance)” value (H. armigera moths; [2]) was “statistically significant levels of attraction”.
`CC/C=C\CCOC(C)=O` [Z-3-hexenyl acetate] was tested, and the “attraction … (statistical significance)” value (H. armigera moths; [2]) was “statistically significant levels of attraction”.
With `CC/C=C\CCOC(=O)c1ccccc1O` [Z-3-hexenyl salicylate] the test % (H. armigera moths; 2% concentration in Sirene) was 26.7%, the “attractiveness in the olfactometer” value (H. armigera moths) was “significantly attractive on its own” and the test % (H. armigera moths; in canola oil) was 33.8%. For the same compound, the “attraction … (statistical significance)” value (H. armigera moths; [1]) was “confirmed” and the “attraction … (statistical significance)” value (H. armigera moths; [2]) was “statistically significant levels of attraction”.
For `OCc1ccccc1` [benzyl alcohol], the “optimum concentration in the olfactometer” value (from here on “optimum concentration”) (H. armigera moths) was “about 1%”, the “attraction … (statistical significance)” value (H. armigera moths; [1]) was “confirmed” and the “attraction … (statistical significance)” value (H. armigera moths; [2]) was “statistically significant levels of attraction”.
With `CNC(=O)Oc1cccc2ccccc12` [carbaryl] the “% killed, summary of trials” value (moths) was 69-94%.
In the case of `CC(C)=CCC/C(C)=C/CO` [geraniol], the “attraction … (statistical significance)” value (H. armigera moths; [2]) is reported as “statistically significant levels of attraction”.
With `C=C(C)[C@H]1CC=C(C)CC1` [limonene] the “attractiveness in the olfactometer” value (H. armigera moths) was “statistically significant” and the “attraction … (statistical significance)” value (H. armigera moths; [2]) was “statistically significant levels of attraction”.
For `CNC(=O)ON=C(C)SC` [methomyl], the “% killed, summary of trials” value (moths) was “killed all moths”.
For `C=CCc1ccc(OC)c(OC)c1` [methyl eugenol], the “optimum concentration” value (H. armigera moths) was “about 2%”.
`O=CCc1ccccc1` [phenylacetaldehyde] was tested, and the “attractiveness in the olfactometer” value (H. armigera moths) was “significantly attractive”, the “optimum concentration” value (H. armigera moths) was “about 1%” and the “attraction … (statistical significance)” value (H. armigera moths; [1]) was “confirmed”. For the same compound, the “attraction … (statistical significance)” value (H. armigera moths; [2]) was “statistically significant levels of attraction”, the “% killed” value (Lab reared female moths; attractant at 2%) was 33.3 b % and the N killed (Lab reared female moths; attractant at 2%) was 14. The “% killed” value (Lab reared female moths; attractant at 8%) was 25.6 b %, the N killed (Lab reared female moths; attractant at 8%) was 11 and the “Peak catch % of phero” value (Helicoverpa spp.; Wamara1Soybean, 1-30 Jan 99) was 0.4%. The “Whole experiment Lure N” value (Helicoverpa spp.; Wamara1Soybean, 1-30 Jan 99) was 10, the “Peak catch % of phero” value (Helicoverpa spp.; Wamara2 Soybean, 13-19 Feb 99) was 1.1% and the “Whole experiment Lure N” value (Helicoverpa spp.; Wamara2 Soybean, 13-19 Feb 99) was 5. The “Peak catch % of phero” value (Helicoverpa spp.; [3]) was 3.1%, the “Whole experiment Lure N” value (Helicoverpa spp.; [3]) was 8 and the “catch in field traps, in words” value (Helicoverpa spp.; field trapping trials) was “caught very few moths”. The “catch relative to the PBE1 catch” value (Helicoverpa spp.; third direct comparison with PBE1) was “less than a quarter”.
